Earlier results as cited in patent US7807682B2, “Pyridyl cyanoguanidine compounds” (Leo Pharma A/S, priority 2001, dated 2010).

What was measured:
[1] = tested on: normal human endothelial cells
human tumour cells = conditions: nude mice transplanted with human tumour cells, also paclitaxel-resistant tumour cells

N#CNC(=Nc1ccncc1)NCCCCCCOc1ccc(Cl)cc1 [N-(6-(4-chlorophenoxy)hexyl)-N′-cyano-N″-(4-pyridyl)guanidine]
antiproliferative activity on normal human endothelial cells [1]: considerably less antiproliferative activity | antitumour activity in vivo (human tumour cells): substantial antitumour activity
